Experiment [1] addresses Human α2δ-1 subunit of Cav2.2 calcium channel (Homo sapiens, UniProt P54289). The experiment can be described thus: Human α2δ-1 subunit of Cav2.2 calcium channel assay ([3H]-gabapentin binding). As to conditions: binding to the α2δ-1 subunit of voltage-gated calcium channels expressed as Ki; + also covers inhibition between 1% and 50%. An outline of the steps:
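Membranes enriched in human α2δ-1 incubated with 15 nM [3H]-gabapentin in 10 mM Hepes-KOH pH 7.4, 60 min at 27 °C; nonspecific binding defined with 10 μM pregabalin. Filtration and scintillation counting; % inhibition at 1 or 10 μM, or Ki from five concentrations.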

In experiment [2] the target is T1, Human σ1 receptor (Homo sapiens, UniProt Q99720).
T1 construct: expressed in transfected cells; host or cells: HEK-293
T1 sequence (Q99720 whole entry): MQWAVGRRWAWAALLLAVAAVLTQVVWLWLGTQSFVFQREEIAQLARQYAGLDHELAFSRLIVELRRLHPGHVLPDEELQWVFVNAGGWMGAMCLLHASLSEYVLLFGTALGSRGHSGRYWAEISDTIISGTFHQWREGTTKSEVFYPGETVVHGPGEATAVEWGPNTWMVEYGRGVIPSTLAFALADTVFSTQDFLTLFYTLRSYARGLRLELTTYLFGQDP
The experiment can be described thus: Human σ1 receptor radioligand assay ([3H](+)-pentazocine binding, transfected HEK-293 membranes). The note with it: binding to σ1 receptor expressed as Ki; + also covers inhibition between 1% and 50%; read-out: σ-1 binding. An outline of the steps: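 Membranes (7 μg) were incubated with 5 nM [3H](+)-pentazocine in 50 mM Tris-HCl pH 8 for 120 min at 37° C. Non-specific binding was defined with 10 μM haloperidol. Values are % inhibition at 1 or 10 μM or Ki from five concentrations, read by filtration and scintillation counting.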

Sequence of Human α2δ-1 subunit of Cav2.2 calcium channel (P54289 25-1103): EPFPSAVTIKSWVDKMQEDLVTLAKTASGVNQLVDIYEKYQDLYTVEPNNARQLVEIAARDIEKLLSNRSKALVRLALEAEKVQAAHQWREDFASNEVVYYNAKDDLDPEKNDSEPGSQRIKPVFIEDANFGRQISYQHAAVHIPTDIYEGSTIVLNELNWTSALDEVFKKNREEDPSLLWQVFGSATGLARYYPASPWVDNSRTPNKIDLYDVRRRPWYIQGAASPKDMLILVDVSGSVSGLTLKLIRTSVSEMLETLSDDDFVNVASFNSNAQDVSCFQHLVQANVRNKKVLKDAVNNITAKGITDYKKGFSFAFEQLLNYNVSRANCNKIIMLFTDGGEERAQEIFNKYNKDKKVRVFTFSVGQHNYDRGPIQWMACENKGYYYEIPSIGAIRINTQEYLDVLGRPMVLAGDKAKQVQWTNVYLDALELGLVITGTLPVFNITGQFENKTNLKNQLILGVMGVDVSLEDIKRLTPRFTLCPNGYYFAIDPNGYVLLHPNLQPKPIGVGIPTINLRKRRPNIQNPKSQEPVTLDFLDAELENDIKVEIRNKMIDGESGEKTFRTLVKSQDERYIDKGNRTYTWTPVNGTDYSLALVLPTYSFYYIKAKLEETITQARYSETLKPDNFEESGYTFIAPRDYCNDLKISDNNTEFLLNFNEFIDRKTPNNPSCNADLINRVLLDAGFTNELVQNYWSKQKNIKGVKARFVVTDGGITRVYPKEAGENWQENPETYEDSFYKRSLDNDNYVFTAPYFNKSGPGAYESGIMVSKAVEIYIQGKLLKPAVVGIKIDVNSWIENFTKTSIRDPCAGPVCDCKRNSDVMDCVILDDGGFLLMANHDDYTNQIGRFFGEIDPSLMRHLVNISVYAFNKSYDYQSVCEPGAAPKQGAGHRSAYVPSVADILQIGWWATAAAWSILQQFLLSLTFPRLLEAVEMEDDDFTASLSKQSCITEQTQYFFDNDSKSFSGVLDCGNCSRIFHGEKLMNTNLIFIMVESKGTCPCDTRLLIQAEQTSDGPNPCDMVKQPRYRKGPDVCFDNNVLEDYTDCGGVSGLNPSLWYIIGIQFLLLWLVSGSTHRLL

Consider `CNCc1c(C)nn2c([C@H]3CCCN(Cc4ccc(Cl)cc4)C3)ccnc12` [Example 213, (S)-1-(7-(1-(4-chlorobenzyl)piperidin-3-yl)-2-methylpyrazolo[1,5-a]pyrimidin-3-yl)-N-methylmethanamine], for which the Ki is 500 to 5000 nM in experiment [1] and less than 500 nM in experiment [2].
The corresponding values for `CC(=O)N1CCC(CNCc2c(C)nn3c([C@H]4CCCN(Cc5ccc(F)c(F)c5)C4)ccnc23)CC1` [Example 247, (S)-1-(4-((((7-(1-(3,4-Difluorobenzyl)piperidin-3-yl)-2-methylpyrazolo[1,5-a]pyrimidin-3-yl)methyl)amino)methyl)piperidin-1-yl)ethan-1-one] are less than 500 nM and less than 500 nM.
The corresponding values for `Cc1nn2c([C@H]3CCCN(Cc4ccc(F)cc4F)C3)ccnc2c1CNCC1CCOCC1` [Example 240, (S)-1-(7-(1-(2,4-Difluorobenzyl)piperidin-3-yl)-2-methylpyrazolo[1,5-a]pyrimidin-3-yl)-N-((tetrahydro-2H-pyran-4-yl)methyl)methanamine] are 500 to 5000 nM and less than 500 nM.
Turning to `Cc1nn2c(C3CCCN(Cc4ccc(Cl)cc4)C3)ccnc2c1CNCC1CCOC1` (racemic) [Example 201, (+/−)-1-(7-((R/S)-1-(4-Chlorobenzyl)piperidin-3-yl)-2-methylpyrazolo[1,5-a]pyrimidin-3-yl)-N—(((S/R)-tetrahydrofuran-3-yl)methyl)methanamine], the Ki in experiment [1] was greater than 5000 nM; in experiment [2] it was less than 500 nM.
Take `Cc1nn2c(C3CCCN(Cc4ccc(Cl)cc4)C3)ccnc2c1CNCc1ccn(C)n1` (stereo not drawn) [Example 151, 1-(7-(1-(4-Chlorobenzyl)piperidin-3-yl)-2-methylpyrazolo[1,5-a]pyrimidin-3-yl)-N-((1-methyl-1H-pyrazol-3-yl)methyl)methanamine]: the Ki in experiment [1] was 500 to 5000 nM; in experiment [2], less than 500 nM.
In the case of `CC(=O)N1CCC(CNCc2c(C)nn3c(C4CCCN(Cc5ccccc5)C4)ccnc23)CC1` (stereo not drawn) [Example 180, 1-(4-((((7-(1-Benzylpiperidin-3-yl)-2-methylpyrazolo[1,5-a]pyrimidin-3-yl)methyl)amino)methyl)piperidin-1-yl)ethan-1-one], the values for the Ki in experiment [1] and in experiment [2] were 500 to 5000 nM and less than 500 nM, respectively.
Consider `COc1ncccc1-c1cc2nccc(C3CCCN(Cc4cccc(Cl)c4)C3)n2n1` (stereo not drawn) [Example 116, 7-(1-(3-Chlorobenzyl)piperidin-3-yl)-2-(2-methoxypyridin-3-yl)pyrazolo[1,5-a]pyrimidine], for which the Ki in experiment [1] is greater than 5000 nM; in experiment [2] it was greater than 1000 nM.
Turning to `CNCCNc1cc2nccc(C3CCCN(Cc4ccccc4)C3)n2n1` (stereo not drawn) [Example 83, N^1-(7-(1-Benzylpiperidin-3-yl)pyrazolo[1,5-a]pyrimidin-2-yl)-N^2-methylethane-1,2-diamine], the results for the Ki in experiment [1] and in experiment [2] were 500 to 5000 nM and greater than 1000 nM, respectively.
In the case of `CN[C@H]1CCN(c2cc3nccc([C@@H]4CCCN(Cc5ccccc5)C4)n3n2)C1` [Example 86, (S)-1-(7-((R)-1-Benzylpiperidin-3-yl)pyrazolo[1,5-a]pyrimidin-2-yl)-N-methylpyrrolidin-3-amine], the Ki is 500 to 5000 nM in experiment [1] and greater than 1000 nM in experiment [2].
Turning to `c1ccc(CN2CCCC(c3ccnc4c(-c5cccnc5)cnn34)C2)cc1` (stereo not drawn) [Example 37, 7-(1-Benzylpiperidin-3-yl)-3-(pyridin-3-yl)pyrazolo[1,5-a]pyrimidine], the values for the Ki in experiment [1] and in experiment [2] were 500 to 5000 nM and greater than 1000 nM, respectively.
For `CC(C)CCN1CCCC(c2ccnc3c(CNCC4CCOCC4)c(Cl)nn23)C1` (stereo not drawn) [Example 191, 1-(2-Chloro-7-(1-isopentylpiperidin-3-yl)pyrazolo[1,5-a]pyrimidin-3-yl)-N-((tetrahydro-2H-pyran-4-yl)methyl)methanamine], the Ki in experiment [1] is greater than 5000 nM; in experiment [2], less than 500 nM.
Turning to `Cc1nn2c([C@@H]3CCCN(Cc4ccc(F)cc4)C3)ccnc2c1CNCC1CCOCC1` [Example 207, (R)-1-(7-(1-(4-fluorobenzyl)piperidin-3-yl)-2-methylpyrazolo[1,5-a]pyrimidin-3-yl)-N-((tetrahydro-2H-pyran-4-yl)methyl)methanamine], the Ki in experiment [1] is greater than 5000 nM; in experiment [2] it was less than 500 nM.
For the molecule `Cc1nn2c(C3CCCN(Cc4ccccc4)C3)ccnc2c1CN(C)CC1CC1` (stereo not drawn) [Example 234, 1-(7-(1-Benzylpiperidin-3-yl)-2-methylpyrazolo[1,5-a]pyrimidin-3-yl)-N-(cyclopropylmethyl)-N-methylmethanamine], the results for the Ki in experiment [1] and in experiment [2] were 500 to 5000 nM and less than 500 nM, respectively.
As to `Cc1nn2c([C@H]3CCCN(Cc4ccc(Cl)cc4)C3)ccnc2c1CN(C)CC1CC1` [Example 228, (S)-1-(7-(1-(4-chlorobenzyl)piperidin-3-yl)-2-methylpyrazolo[1,5-a]pyrimidin-3-yl)-N-(cyclopropylmethyl)-N-methylmethanamine], the Ki in experiment [1] and in experiment [2] was less than 500 nM throughout.
As to `COc1ncccc1-c1cc2nccc(C3CCCN(Cc4ccc(F)c(F)c4)C3)n2n1` (stereo not drawn) [Example 119, 7-(1-(3,4-Difluorobenzyl)piperidin-3-yl)-2-(2-methoxypyridin-3-yl)pyrazolo[1,5-a]pyrimidine], the Ki was greater than 5000 nM in experiment [1] and greater than 1000 nM in experiment [2].
With `COc1cccc(-c2cc3nccc(C4CCCN(Cc5ccccc5)C4)n3n2)n1` (stereo not drawn) [Example 30, 7-(1-Benzylpiperidin-3-yl)-2-(6-methoxypyridin-2-yl)pyrazolo[1,5-a]pyrimidine], the Ki was greater than 5000 nM in experiment [1] and greater than 1000 nM in experiment [2].
As to `CCc1nn2c(C3CCCN(Cc4ccccc4)C3)ccnc2c1-c1ccncc1` (stereo not drawn) [Example 60, 7-(1-Benzylpiperidin-3-yl)-2-ethyl-3-(pyridin-4-yl)pyrazolo[1,5-a]pyrimidine], the Ki was 500 to 5000 nM in experiment [1] and greater than 1000 nM in experiment [2].
For `Cc1ccc(CN2CCCC(c3ccnc4c(-c5ccncc5)c(C)nn34)C2)cc1` (stereo not drawn) [Example 76, 2-Methyl-7-(1-(4-methylbenzyl)piperidin-3-yl)-3-(pyridin-4-yl)pyrazolo[1,5-a]pyrimidine], the values for the Ki in experiment [1] and in experiment [2] were 500 to 5000 nM and 500 to 1000 nM, respectively.
The corresponding values for `CCc1cc2nccc(C3CCCN(Cc4ccccc4)C3)n2n1` (stereo not drawn) [Example 4, 7-(1-Benzylpiperidin-3-yl)-2-ethylpyrazolo[1,5-a]pyrimidine] are 500 to 5000 nM and less than 500 nM.
With `Cc1nn2c(C3CCCN(Cc4ccc(Cl)cc4)C3)ccnc2c1CN1CCOCC1` (stereo not drawn) [Example 165, 4-((7-(1-(4-Chlorobenzyl)piperidin-3-yl)-2-methylpyrazolo[1,5-a]pyrimidin-3-yl)methyl)morpholine], the Ki in experiment [1] is greater than 5000 nM; in experiment [2], 500 to 1000 nM.
Take `Brc1cc2nccc(C3CCCN(Cc4ccccc4)C3)n2n1` (stereo not drawn) [Example 1, 7-(1-Benzylpiperidin-3-yl)-2-bromopyrazolo[1,5-a]pyrimidine]: the Ki in experiment [1] was 500 to 5000 nM; in experiment [2], 500 to 1000 nM.
The corresponding values for `Cc1nn2c(C3CCCN(Cc4ccc(Cl)cc4)C3)ccnc2c1CNCC1(F)CCOCC1` (stereo not drawn) [Example 177, 1-(7-(1-(4-Chlorobenzyl)piperidin-3-yl)-2-methylpyrazolo[1,5-a]pyrimidin-3-yl)-N-((4-fluorotetrahydro-2H-pyran-4-yl)methyl)methanamine] are 500 to 5000 nM and less than 500 nM.
As for `Cc1cnc2c(-c3ccncc3)cnn2c1C1CCCN(Cc2ccccc2)C1` (stereo not drawn) [Example 41, 7-(1-Benzylpiperidin-3-yl)-6-methyl-3-(pyridin-4-yl)pyrazolo[1,5-a]pyrimidine], the Ki in experiment [1] is 500 to 5000 nM; in experiment [2], greater than 1000 nM.
Regarding `Cc1nn2c(CC3CCCN(Cc4cccc(Cl)c4)C3)ccnc2c1-c1ccncc1` (stereo not drawn) [Example 250], the Ki in experiment [1] was greater than 5000 nM; in experiment [2], 500 to 1000 nM.
With `CCN1CCCC(c2ccnc3c(-c4ccncc4)c(C)nn23)C1` (stereo not drawn) [Example 69, 7-(1-Ethylpiperidin-3-yl)-2-methyl-3-(pyridin-4-yl)pyrazolo[1,5-a]pyrimidine], the Ki is greater than 5000 nM in experiment [1] and greater than 1000 nM in experiment [2].
`Cc1nn2c(C3CCCN(Cc4ccccc4)C3)ccnc2c1-c1ccncc1F` (stereo not drawn) [Example 52, 7-(1-Benzylpiperidin-3-yl)-3-(3-fluoropyridin-4-yl)-2-methylpyrazolo[1,5-a]pyrimidine]: the Ki in experiment [1] is 500 to 5000 nM; in experiment [2], greater than 1000 nM.
With `Cc1nn2c(C3CCCN(Cc4ccccc4)C3)ccnc2c1-c1ccc(N(C)C)cc1` (stereo not drawn) [Example 47, 4-(7-(1-Benzylpiperidin-3-yl)-2-methylpyrazolo[1,5-a]pyrimidin-3-yl)-N,N-dimethylaniline], the figures for the Ki in experiment [1] and in experiment [2] were greater than 5000 nM and greater than 1000 nM, respectively.
The corresponding values for `Cc1nn2c(C3CCCN(Cc4ccc(Cl)cc4)C3)ccnc2c1CN1C[C@@H](C)O[C@@H](C)C1` (stereo partly drawn) [Example 164, (2S,6R)-4-((7-(1-(4-Chlorobenzyl)piperidin-3-yl)-2-methylpyrazolo[1,5-a]pyrimidin-3-yl)methyl)-2,6-dimethylmorpholine] are 500 to 5000 nM and 500 to 1000 nM.
The corresponding values for `Nc1ccc(-c2cc3nccc(C4CCCN(Cc5ccccc5)C4)n3n2)cn1` (stereo not drawn) [Example 24, 5-(7-(1-Benzylpiperidin-3-yl)pyrazolo[1,5-a]pyrimidin-2-yl)pyridin-2-amine] are 500 to 5000 nM and greater than 1000 nM.
The corresponding values for `Cc1cc2nccc(C3CCCN(Cc4ccccc4)C3)n2n1` (stereo not drawn) [Example 3, 7-(1-Benzylpiperidin-3-yl)-2-methylpyrazolo[1,5-a]pyrimidine] are 500 to 5000 nM and 500 to 1000 nM.

(Values after patent US12617797B2, “Substituted pyrazolo [1,5-a]pyrimidines having multimodal activity against pain” (ESTEVE PHARMACEUTICALS, S.A., priority 2020, dated 2026).)
